# Where a name gives a salt, the structure may show the parent alone.
# Assays:
# Presbiopic patients = experiment: Topical eye-drop treatment of presbyopic patients (100 patients, 4 groups), follow-up of near and distant visual sharpness and tolerance; type: in vivo, human; conditions: of 100 patients treated
# Procedure: 100 Presbiopic patients of both sexes, of age 40 to 65, were treated with the compositions of the invention. Exclusion criteria concerned patients with myopia or astigmatism higher than 1 dioptre, and hypermetropia greater than 3 dioptres as well as those with corneal, lens and vitreous opacitis, and chronic general pathologies. 4 Different groups of presbyopic population were differentiated: Group 1: Pure presbyopics Group 2: Presbyopics with hypermetropia Group 3: Presbyopics with phorias Group 4: Presbyopics with glaucoma Patients of all groups were treated with eye drops of different concentrations and combinations of medicaments acting on the ocular sympathetic innervation. Pure presbyopic patients (Group 1) were topically treated with 1% pilocarpine hydrochloride+0.5% diclofenac sodium, at 6 hr intervals during the daily hours; treatment was suspended at night. Presbyopics with hypermetropia (Group 2) were topically treated with 2% pilocarpine hydrochloride+0.5% diclofenac sodium, at 6 hr intervals during the daily hours. […] All patients were monitored after one week treatment and monthly during the first three months to evaluate dosage and side-effects. […]
# presbyopic patient = conditions: does not solve blurred distant vision; cited from earlier work
SMILES,patients showed intolerance (diarrhoea and dyspepsia) (Presbiopic patients) [patients],result of topical application to presbyopic patient (presbyopic patient)
CC[C@@H]1C(=O)OC[C@@H]1Cc1cncn1C [pilocarpine hydrochloride],2,–
CNC(=O)Oc1ccc2c(c1)[C@]1(C)CCN(C)[C@@H]1N2C [physostygmine],–,poor results

# Reference: patent US20130197047A1, “OPHTHALMIC COMPOSITIONS OF PARASYMPATHETIC STIMULANTS AND ANTI-INFLAMMATORIES FOR USE IN THE TREATMENT OF PRESBYOPIA” (priority 2006, published 2013)
